We go through 3 compounds from publication PMC9457730, “Ajuforrestin A, an Abietane Diterpenoid from Ajuga ovalifolia var. calanthe, Induces A549 Cell Apoptosis by Targeting SHP2” (Molecules, 2022).

In assay [1] the test system is A549 cells. The experiment in a line: A549 cell invasion assay (matrigel). The conditions noted are these: 24 h incubation. Format: cell-based, Human. Here is the method:
The inner chamber was pre-coated with matrigel. Cells were seeded in the inner chamber with FBS-free medium, and DMEM medium with 5% FBS was added to the outer chamber. After a 24 h treatment with compound 2, 4% paraformaldehyde was used to fix the cells and 0.1% crystal violet was used to stain A549 cells.

Assay [2] has as its system p-ERK1/2, PI3K-AKT and STAT3 signaling pathways. The experiment in a line: Western blot of ERK, AKT, STAT3 signaling pathway. The format is cell-based, Human. The conditions noted are these: A549, 72 h. As for the experimental part: (§1) After compound 2 treatment, RIPA buffer was used to lyse cells’ protein. Equal sample proteins were added in SDS-PAGE, separated with 100 V in 60 min, then transferred into PVDF membranes, and the membranes incubated with corresponding primary antibodies (Huabio, Hangzhou, China). GAPDH or Tubulin served as normal control.

Assay [3] concerns cleaved caspase-3, 8, 9 and cleaved-PARP. The experiment in a line: Western blot of apoptosis-related signaling pathway. The format is cell-based, Human. The conditions noted are these: A549, 72 h. Here is the method: as §1
A general note: In western blotting, separated proteins are transferred to a membrane and probed.

Assay [4] concerns A549 cells. The experiment in a line: Apoptosis flow cytometry (Annexin V-FITC/PI). The format is cell-based, Human. The conditions noted are these: A549, 72 h. Here is the method:
After 72 h treatment with different concentrations of compound 2, A549 cells were collected and rinsed three times with PBS. A 195 μL Annexin V-FITC buffer, 5 μL Annexin V-FITC, and 10 μL PI were sequentially added to each sample. The apoptotic cells were detected and analyzed by flow cytometry (ACEA NovoCyte, Hangzhou, China).
For orientation: A flow cytometer gives signals particle by particle.

In assay [5] the test system is SHP2. The experiment in a line: Western blot of cellular SHP2 / p-SHP2 expression. Particulars: A549, 72 h. The format is cell-based, Human. As for the experimental part: as §1
Assay [6] concerns the target T1, SHP2 (Homo sapiens, UniProt Q06124).
T1 sequence (Q06124 1-593): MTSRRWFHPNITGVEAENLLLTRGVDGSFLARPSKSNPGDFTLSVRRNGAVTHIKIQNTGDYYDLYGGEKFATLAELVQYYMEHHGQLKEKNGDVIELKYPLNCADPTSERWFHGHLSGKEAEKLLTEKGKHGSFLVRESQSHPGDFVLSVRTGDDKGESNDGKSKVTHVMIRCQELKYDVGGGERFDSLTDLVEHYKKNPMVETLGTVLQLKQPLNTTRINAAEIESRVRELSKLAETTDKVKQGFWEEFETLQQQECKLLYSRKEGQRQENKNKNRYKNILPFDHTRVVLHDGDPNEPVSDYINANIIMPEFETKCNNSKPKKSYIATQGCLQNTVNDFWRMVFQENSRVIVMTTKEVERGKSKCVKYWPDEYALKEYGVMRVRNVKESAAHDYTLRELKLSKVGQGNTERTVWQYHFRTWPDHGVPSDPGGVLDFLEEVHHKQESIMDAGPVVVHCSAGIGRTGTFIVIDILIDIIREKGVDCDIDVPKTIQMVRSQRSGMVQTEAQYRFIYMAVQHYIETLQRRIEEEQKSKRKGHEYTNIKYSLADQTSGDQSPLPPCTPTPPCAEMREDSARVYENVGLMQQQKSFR
The experiment in a line: SHP2 catalytic activity in vitro (DiFMUP substrate). Format: biochemical. Details: GST; made in house; host or cells: Escherichia coli BL21. The conditions noted are these: 15 nM purified SHP2, DiFMUP 10 μM. Here is the method: (§2) Escherichia coli BL21 was used to express SHP1 and SHP2 protein and proteins were purified with GST tag. In total, 15 nM SHP1 or SHP2 purified protein, a test compound (10 μM) or DMSO and reaction buffer in 100 μL constitute the reaction system. DiFMUP (10 μM) was added to the reaction system to initiate the reaction. The inhibitory effects of compounds 1–3 were detected by Varioskan Lux with 355 nm excitation and 460 nm emission wavelengths.

The target of assay [7] is T1, SHP2. As to the kind of experiment: Cellular thermal shift assay (CETSA). Format: binding. Details: endogenous in cells; host or cells: A549. Particulars: A549 cell supernatant. As for the experimental part:
A total of 549 cells in 12 cm dish were collected and washed with PBS three times. After three rounds of liquid nitrogen-thaw and centrifugation at 13,000× g for 10 min at 4 °C, the cell supernatant was collected. The cell supernatant was divided into two aliquots of 50 μL each. Compound 2 or DMSO was added to each sample. The sample was heated from 50 °C to 62 °C, then cooled for 3 min [33]. Finally, all samples were processed under 4.7.

Assay [8] concerns A549 cells. The experiment in a line: A549 cell wound-healing assay. Format: cell-based, Human. The conditions noted are these: up to 72 h. Here is the method: When the A549 cell covered 80% of cell culture dish, these cells were seeded in 6-well plates at 5 × 10^5 cells/well, respectively. After the cells adhered to the plates, wound formation was performed by 200 μL pipette tips. Then, A549 cells were treated with different concentrations of compound 2 for 72 h. The image of each gap was obtained by Leica TCS SP8 (Leica, Wetzlar, Germany) at 0, 24, 72 h, respectively.

Assay [9] has as its system A549 cells. As to the kind of experiment: Cell viability assay (CCK-8). The format is cell-based, Human.
A further assay addresses T2, SHP1 (Homo sapiens, UniProt P29350).
T2 construct: GST; made in house; host or cells: Escherichia coli BL21
As to the kind of experiment: SHP1 catalytic activity in vitro (DiFMUP substrate). Format: biochemical. The conditions noted are these: for inhibitory effect on SHP1 catalytic activity: at high concentrations. Here is the method: as §2

A further assay has as its system caspase-3. As to the kind of experiment: Caspase-3 activity assay (Ac-DEVD-AFC). Format: cell-based, Human. Particulars: A549, 72 h. Here is the method:
Ac-DEVD-AFC, a caspase-3 fluorimetric substrate, was used to detect caspase-3 activity. After 72 h treatment with compound 2, cell supernatants were collected. The 20 μL cell supernatants, 100 μM Ac-DEVD-AFC, and reaction buffer constituted the 100 μL reaction system, and was then incubated at 37 °C for another 1 h. Caspase-3 activity was detected by Varioskan Lux with 405 nm excitation and 510 nm emission wavelengths.

T2 sequence (P29350 whole entry): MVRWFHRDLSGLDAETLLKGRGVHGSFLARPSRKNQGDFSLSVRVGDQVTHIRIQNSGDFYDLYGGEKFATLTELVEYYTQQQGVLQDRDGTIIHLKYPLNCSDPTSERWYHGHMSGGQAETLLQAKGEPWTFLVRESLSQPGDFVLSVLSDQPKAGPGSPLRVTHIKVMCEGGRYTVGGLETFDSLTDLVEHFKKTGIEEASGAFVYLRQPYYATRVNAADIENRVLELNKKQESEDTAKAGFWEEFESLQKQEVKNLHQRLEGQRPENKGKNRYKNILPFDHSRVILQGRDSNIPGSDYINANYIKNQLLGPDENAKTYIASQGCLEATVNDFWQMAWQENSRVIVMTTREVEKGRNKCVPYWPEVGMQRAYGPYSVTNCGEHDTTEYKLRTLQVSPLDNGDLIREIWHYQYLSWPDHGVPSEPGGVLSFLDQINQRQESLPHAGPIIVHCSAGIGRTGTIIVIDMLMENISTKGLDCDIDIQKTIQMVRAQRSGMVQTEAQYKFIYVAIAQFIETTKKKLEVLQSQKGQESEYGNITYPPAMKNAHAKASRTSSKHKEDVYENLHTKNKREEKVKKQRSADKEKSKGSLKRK

In the case of `CC1=C(C)C2=CC(=O)c3c(c(O)c4occ(C)c4c3O)[C@@]2(C)CC1` [Compound 2, Ajuforrestin A], in the assay on A549 cells [1], the “A549 cell invasion ability” value is “obviously decreased”. Also, the p-ERK1/2 expression result in assay [2] was “markedly inhibited p-ERK1/2 expression”. The “PI3K-AKT and STAT3 signaling pathways” value in assay [2] (various concentrations) is listed as “obviously inhibited”. In addition, the cleaved-PARP result in assay [3] is listed as “activated”. Further, in assay [3] (various doses), the “cleaved caspase-3, 8, 9” value is “up-regulated”. The apoptotic cells result in the assay on A549 cells [4] is on record as “obvious increase in apoptotic cells”. In the assay on SHP2 [5], the “cellular SHP2 expression” value is reported as “suppressed SHP2 expression in a dose-dependent manner”; the “expression of SHP2 and phosphorylation of SHP2” value is reported as “down-regulated”. On SHP2 [6], the IC50 came to 7.01 ± 0.85 µM. Also, the “SHP2 stability with increasing concentration (CETSA)” value on SHP2 [7] is reported as “raised SHP2 stability”. In addition, at SHP2 [7] (50 °C to 62 °C), the “SHP2 thermal stability (CETSA)” value is recorded as “decrease in SHP2 expression with increasing temperature was suppressed”. For the same compound, the A549 cell migration entry in the assay with A549 cells [8] is “significantly restrained A549 cell migration”. The A549 cell viability result in the assay on A549 cells [9] (24 h treatment) is “did not affect A549 cell viability”. Besides, in the assay with A549 cells [9] (Homo sapiens, A549, CCK-8, 72 h, read-out: IC50 A549 cell proliferation), the IC50 was 8.68 ± 0.96 µM. In addition, the “inhibitory effect on SHP1” value against SHP1 (below 20 μM) was “no inhibitory effects”. The caspase-3 expression result in the assay on caspase-3 is listed as “significant rise in caspase-3 expression in a dose-dependent manner”.

In turn, `CC1=C(C)C2=CC(=O)C3=C(C(=O)c4oc(C)cc4C3=O)[C@@]2(C)CC1` [Compound 1, 12, 16-epoxy-17(15→16), 18(4→3)-diabeo-abieta-3,5,8, 12, 15-pentaene-7, 11, 14-trione] had an IC50 against SHP2 [6] of 26 ± 1.41 µM. Moreover, the “inhibitory effect on SHP1 catalytic activity” value against SHP1 was “inhibited SHP1 catalytic activity at high concentrations”.

Compound `CC1=C(C)C2=CC(=O)c3c(O)c4c(c(O)c3[C@@]2(C)CC1=O)OC[C@H]4C` [Compound 3, Ajudecumin A] returned an IC50 against SHP2 [6] of 20 ± 1.31 µM. Also, the “inhibitory effect on SHP1 catalytic activity” value against SHP1 was “inhibited SHP1 catalytic activity at high concentrations”.
